From patent publication US20260347347A1, “2-AZA-AND 2-OXABICYCLO[2.1.1]HEXANE DERIVATIVES AS FACTOR XIIA ENZYME INHIBITORS” (KALVISTA PHARMACEUTICALS LIMITED, priority 2022, published 2026)

Biological target: T1, Human Factor XIIa (Homo sapiens, UniProt P00748)
T1 construct: purchased Enzyme Research Laboratories
T1 sequence (P00748 373-615 limits assumed): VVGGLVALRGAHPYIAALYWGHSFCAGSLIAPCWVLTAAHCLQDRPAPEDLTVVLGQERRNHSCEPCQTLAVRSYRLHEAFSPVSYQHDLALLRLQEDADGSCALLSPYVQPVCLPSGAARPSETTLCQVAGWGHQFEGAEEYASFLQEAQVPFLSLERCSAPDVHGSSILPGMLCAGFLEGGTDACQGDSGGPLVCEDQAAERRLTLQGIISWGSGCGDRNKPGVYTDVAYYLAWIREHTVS
T1 sequence (P00748 20-372 partner limits assumed): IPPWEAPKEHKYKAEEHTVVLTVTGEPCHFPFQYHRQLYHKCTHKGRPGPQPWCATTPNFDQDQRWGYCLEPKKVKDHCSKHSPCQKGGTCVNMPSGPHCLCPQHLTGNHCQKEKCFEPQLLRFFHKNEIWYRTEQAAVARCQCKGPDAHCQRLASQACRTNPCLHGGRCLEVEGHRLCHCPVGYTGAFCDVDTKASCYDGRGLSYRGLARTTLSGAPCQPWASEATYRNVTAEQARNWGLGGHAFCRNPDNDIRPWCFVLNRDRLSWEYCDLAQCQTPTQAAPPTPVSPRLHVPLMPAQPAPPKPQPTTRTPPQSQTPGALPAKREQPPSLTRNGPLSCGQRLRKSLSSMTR
Test: Determination of FXIIa inhibition (in vitro IC50 assay, fluorogenic substrate H-DPro-Phe-Arg-AFC)
Type: biochemical
Details: human Factor XIIa; fluorogenic substrate H-DPro-Phe-Arg-AFC at Km concentration; 5 min, 25 °C; class symbols; read-out: Human FXIIa IC50
Outline: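 Human FXIIa incubated at 25 °C with compound and H-DPro-Phe-Arg-AFC at its Km concentration. Linear fluorescence increase monitored over 5 min, expressed as % of uninhibited activity; IC50 is concentration giving 50% inhibition.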

Compound | IC50
Cn1ccc(OCC23CN(C(=O)N4CCCc5ccccc54)C(CNc4cccc5c(N)nccc45)(C2)C3)cc1=O [Example 36, 4-((1-(((1-aminoisoquinolin-5-yl)amino)methyl)-2-(1,2,3,4-tetrahydroquinoline-1-carbonyl)-2-azabicyclo[2.1.1]hexan-4-yl)methoxy)-1-methylpyridin-2(1H)-one] | 100 to 300 nM
Cn1ccc(OCC23CC(CNc4cccc5c(N)nccc45)(CN2C(=O)CCC2CCCCC2)C3)cc1=O [Example 102, 4-((4-(((1-Aminoisoquinolin-5-yl)amino)methyl)-2-(3-cyclohexylpropanoyl)-2-azabicyclo[2.1.1]hexan-1-yl)methoxy)-1-methylpyridin-2(1H)-one] | 100 to 300 nM
C[C@H](C(=O)N1CC2(COc3ccn(C)c(=O)c3)CC1(CNc1cccc3c(N)nccc13)C2)c1ccccc1 [Example 13, (S)-4-((1-(((1-aminoisoquinolin-5-yl)amino)methyl)-2-(2-phenylpropanoyl)-2-azabicyclo[2.1.1]hexan-4-yl)methoxy)-1-methylpyridin-2(1H)-one] | 10 to 100 nM
Cn1ccc(OCC23CN(C(=O)NC4(C)COC4)C(CNc4cccc5c(N)nccc45)(C2)C3)cc1=O [Example 79, 1-(((1-aminoisoquinolin-5-yl)amino)methyl)-4-(((1-methyl-2-oxo-1,2-dihydropyridin-4-yl)oxy)methyl)-N-(3-methyloxetan-3-yl)-2-azabicyclo[2.1.1]hexane-2-carboxamide] | 10 to 100 nM
C[C@@H](c1ccccc1)N(C)C(=O)N1CC2(COc3ccn(C)c(=O)c3)CC1(CNc1cccc3c(N)nccc13)C2 [Example 42, (S)-1-(((1-aminoisoquinolin-5-yl)amino)methyl)-N-methyl-4-(((1-methyl-2-oxo-1,2-dihydropyridin-4-yl)oxy)methyl)-N-(1-phenylethyl)-2-azabicyclo[2.1.1]hexane-2-carboxamide] | 10 to 100 nM
Cn1ccc(OCC23CN(C(=O)NC4(c5ccccc5)CCOCC4)C(CNc4cccc5c(N)nccc45)(C2)C3)cc1=O [Example 64, 1-(((1-aminoisoquinolin-5-yl)amino)methyl)-4-(((1-methyl-2-oxo-1,2-dihydropyridin-4-yl)oxy)methyl)-N-(4-phenyltetrahydro-2H-pyran-4-yl)-2-azabicyclo[2.1.1]hexane-2-carboxamide] | 10 to 100 nM
Cn1ccc(OCC23CN(C(=O)NC4(C)CCOCC4)C(CNc4cccc5c(N)nccc45)(C2)C3)cc1=O [Example 78, 1-(((1-aminoisoquinolin-5-yl)amino)methyl)-4-(((1-methyl-2-oxo-1,2-dihydropyridin-4-yl)oxy)methyl)-N-(4-methyltetrahydro-2H-pyran-4-yl)-2-azabicyclo[2.1.1]hexane-2-carboxamide] | 10 to 100 nM

The next lines start with the values.

IC50 | Compound
0.1 to 1 nM | Cn1ccc(OCC23CN(C(=O)Nc4ccc5c(c4)CCCO5)C(CNc4cccc5c(N)nccc45)(C2)C3)cc1=O [Example 52, 1-(((1-aminoisoquinolin-5-yl)amino)methyl)-N-(chroman-6-yl)-4-(((1-methyl-2-oxo-1,2-dihydropyridin-4-yl)oxy)methyl)-2-azabicyclo[2.1.1]hexane-2-carboxamide]
10 to 100 nM | CC(C(=O)N1CC2(COc3ccn(C)c(=O)c3)CC1(CNc1cccc3c(N)nccc13)C2)c1ccc2c(c1)CCO2 (stereo not shown) [Example 27, 4-((1-(((1-aminoisoquinolin-5-yl)amino)methyl)-2-(2-(2,3-dihydrobenzofuran-5-yl)propanoyl)-2-azabicyclo[2.1.1]hexan-4-yl)methoxy)-1-methylpyridin-2(1H)-one]
10 to 100 nM | Cc1cc(OCC23CN(C(=O)Nc4ccc5c(c4)OC(F)(F)O5)C(CNc4cccc5c(N)nccc45)(C2)C3)cc(=O)n1C [Example 92, 1-(((1-aminoisoquinolin-5-yl)amino)methyl)-N-(2,2-difluorobenzo[d][1,3]dioxol-5-yl)-4-(((1,6-dimethyl-2-oxo-1,2-dihydropyridin-4-yl)oxy)methyl)-2-azabicyclo[2.1.1]hexane-2-carboxamide]
